Source: US8343961B2, “Substituted heterocyclic compounds” (ArQule, Inc., priority 2009, dated 2013)

Columns and labels:
Assay type in all cases: cell-based
[1] = tested on: PACA-2; assay: MTS Cellular Assay, PACA-2; conditions: PACA-2, 72 hours
Description: (§1) Cells were maintained at 37° C., 5% CO2 in DMEM media supplemented with 1% fetal bovine serum, penicillin/streptomycin and fungizone (Invitrogen). Cells were seeded into 96-well tissue culture plates at 3000 per well and cultured at 37° C. for 18 hours. Test compounds were dissolved and diluted to 300× in DMSO then further diluted 1:40 in DMEM before addition to cells (1:7.5 dilution). Cells were incubated with test compounds for 72 hours followed by incubation with tetrazolium compound (3-(4,5-dimethylthiazol-2-yl)-5-(3-carboxymethoxyphenyl)-2-(4-sulfophenyl)-2H-tetrazolium, inner salt; MTS) and the electron coupling reagent, phenazine methosulfate (PMS) for 4 hours. […] The ability of compounds to inhibit cell growth in this assay is correlated with the reduction of dehydrogenase enzyme activity found in metabolically active cells. The measurement of the absorbance of the formazan was assessed using an ENVISION™ (Perkin Elmer) microplate reader at 492 nm. The calculated IC50 value is the concentration of the test compound that causes a 50% decrease in the absorbance.

[2] = tested on: MDA-MB-231; assay: MTS Cellular Assay, MDA-MB-231; conditions: Homo sapiens, MDA-MB-231, 72 hours
Description: as §1

[3] = tested on: NCI-H1299; assay: MTS Cellular Assay, NCI-H1299; conditions: Homo sapiens, NCI-H1299, 72 hours
Description: as §1

[4] = tested on: PC-3; assay: MTS Cellular Assay, PC-3; conditions: Homo sapiens, PC-3, 72 hours
Description: as §1

[5] = tested on: DLD-1; assay: MTS Cellular Assay, DLD-1; conditions: Homo sapiens, DLD-1, 72 hours
Description: as §1

[6] = tested on: KATO III; assay: MTS Cellular Assay, KATO III; conditions: Homo sapiens, 72 hours
Description: as §1

Row | Structure (SMILES) | inhibition at 10 µM [1] [%] | inhibition at 10 µM [2] [%] | inhibition at 10 µM [3] [%] | inhibition at 10 µM [4] [%] | inhibition at 10 µM [5] [%] | inhibition at 10 µM [6] [%]
1 | Nc1nc(N2CCN(CCCc3cccc(Cl)c3)c3ccccc3C2)c2cn[nH]c2n1 [Compound 8, 4-{1-[3-(3-chlorophenyl)propyl]-1,2,3,5-tetrahydro-4H-1,4-benzodiazepin-4-yl}-1H-pyrazolo[3,4-d]pyrimidin-6-amine] | < 50 | < 50 | 50 to 79 | < 50 | > 79 | < 50
2 | Nc1nc(N2CCN(Cc3ccccc3Cl)c3ccccc3C2)c2cn[nH]c2n1 [Compound 14, 4-[1-(2-chlorobenzyl)-1,2,3,5-tetrahydro-4H-1,4-benzodiazepin-4-yl]-1H-pyrazolo[3,4-d]pyrimidin-6-amine] | < 50 | > 79 | 50 to 79 | > 79 | > 79 | > 79
3 | Nc1nc(N2CCN(Cc3cccc(C(F)(F)F)c3)c3ccccc3C2)c2cn[nH]c2n1 [Compound 21, 4-{1-[3-(trifluoromethyl)benzyl]-1,2,3,5-tetrahydro-4H-1,4-benzodiazepin-4-yl}-1H-pyrazolo[3,4-d]pyrimidin-6-amine] | < 50 | > 79 | < 50 | > 79 | > 79 | > 79
4 | Nc1nc(N2CCN(Cc3ccc(Cl)cc3)c3ccccc3C2)c2cn[nH]c2n1 [Compound 23, 4-[1-(4-chlorobenzyl)-1,2,3,5-tetrahydro-4H-1,4-benzodiazepin-4-yl]-1H-pyrazolo[3,4-d]pyrimidin-6-amine] | < 50 | 50 to 79 | > 79 | < 50 | > 79 | < 50
5 | COc1ccc(CN2CCN(c3nc(N)nc4[nH]ncc34)Cc3ccccc32)cc1OC [Compound 28, 4-[1-(3,4-dimethoxybenzyl)-1,2,3,5-tetrahydro-4H-1,4-benzodiazepin-4-yl]-1H-pyrazolo[3,4-d]pyrimidin-6-amine] | > 79 | > 79 | > 79 | > 79 | > 79 | > 79
6 | CC(C)(C)c1ccc(CN2CCN(c3nc(N)nc4[nH]cnc34)Cc3ccccc32)cc1 [Compound 29, 6-[1-(4-tert-butylbenzyl)-1,2,3,5-tetrahydro-4H-1,4-benzodiazepin-4-yl]-9H-purin-2-amine] | < 50 | < 50 | < 50 | < 50 | < 50 | < 50
7 | CC(C)(C)c1ccc(CN2CCN(c3nc(N)nc4[nH]ncc34)Cc3ccccc32)cc1 [Compound 30, 4-[1-(4-tert-butylbenzyl)-1,2,3,5-tetrahydro-4H-1,4-benzodiazepin-4-yl]-1H-pyrazolo[3,4-d]pyrimidin-6-amine] | < 50 | < 50 | 50 to 79 | < 50 | > 79 | < 50
8 | Nc1nc(N2CCN(Cc3ccc(Cl)cc3Cl)c3ccccc3C2)c2cn[nH]c2n1 [Compound 32, 4-[1-(2,4-dichlorobenzyl)-1,2,3,5-tetrahydro-4H-1,4-benzodiazepin-4-yl]-1H-pyrazolo[3,4-d]pyrimidin-6-amine] | < 50 | < 50 | > 79 | < 50 | > 79 | 50 to 79
9 | COc1ccc(OC)c(CN2CCN(c3nc(N)nc4[nH]ncc34)Cc3ccccc32)c1 [Compound 36, 4-[1-(2,5-dimethoxybenzyl)-1,2,3,5-tetrahydro-4H-1,4-benzodiazepin-4-yl]-1H-pyrazolo[3,4-d]pyrimidin-6-amine] | > 79 | > 79 | > 79 | > 79 | > 79 | > 79
10 | Nc1nc(N2CCN(CCCc3cccc(F)c3)c3ccccc3C2)c2nc[nH]c2n1 [Compound 39, 6-{1-[3-(3-fluorophenyl)propyl]-1,2,3,5-tetrahydro-4H-1,4-benzodiazepin-4-yl}-9H-purin-2-amine] | > 79 | > 79 | > 79 | > 79 | > 79 | > 79
11 | Nc1nc(N2CCN(Cc3ccc(Cl)c(Cl)c3)c3ccccc3C2)c2cn[nH]c2n1 [Compound 43, 4-[1-(3,4-dichlorobenzyl)-1,2,3,5-tetrahydro-4H-1,4-benzodiazepin-4-yl]-1H-pyrazolo[3,4-d]pyrimidin-6-amine] | < 50 | < 50 | 50 to 79 | < 50 | > 79 | < 50
